# Measured values reported in US11427783B2, “Perfuming compositions” (Firmenich SA, priority 2016, dated 2022).
# Counter-ions that a name gives are not always drawn. Like-named read-outs stand apart in the source and are kept apart here.
# Legend:
# [1] = Volatility of perfuming compounds in air; type: physicochemical
# [2] = Table 5, perfuming compounds having a green note
# [3] = Table 6, perfuming compounds having a fruity note
# [4] = Table 10, perfuming compounds having a woody note
# [5] = Table 8, perfuming compounds having a sweet note
# [6] = Table 9, perfuming compounds having a gourmand note
compound,measurement,setting,value
COc1ccc(C=O)cc1 [4-METHOXYBENZALDEHYDE],Volatility,[1]; [2],98.47 μg/l air
COc1ccc(COC(C)=O)cc1 [4-METHOXYBENZYL ACETATE],Volatility (μg/l air),[1]; [3],17.59 μg/l air
"CC(=O)OC1CCC2C(C)(C)CCCC2(C)C1 (centres unmarked) [5,5,8a-trimethyldecahydro-2-naphthalenyl acetate]",logP,physchem; n-octanol/water,5.5
same,Volatility (μg/l air),[1]; [4],14.41 μg/l air
CC=CC(=O)C(C)CC (centres unmarked) [5-METHYL-2-HEPTEN-4-ONE],Volatility (μg/l air),[1]; [5],5525.83 μg/l air
CCCCC1CCCC(=O)O1 (centres unmarked) [5-NONANOLIDE],Volatility (μg/l air),[1]; [3],23.87 μg/l air
same,Volatility (μg/l air),[1]; [5],23.87 μg/l air
same,Volatility (μg/l air),[1]; [6],23.87 μg/l air
COCCc1ccccc1 [(2-METHOXYETHYL)BENZENE],Volatility,[1]; [2],1239.07 μg/l air
"CC(=O)/C=C/C1=C(C)CCCC1(C)C [(3E)-4-(2,6,6-trimethyl-1-cyclohexen-1-yl)-3-buten-2-one]",logP,physchem; n-octanol/water,3.88
same,Volatility (μg/l air),[1]; [4],35.41 μg/l air
CC/C=C\CCOC(=O)c1ccccc1O [(3Z)-3-hexen-1-yl salicylate],logP,physchem; n-octanol/water,4.83
same,Volatility,[1]; [2],4.34 μg/l air
CCC/C=C/CO [(E)-2-HEXEN-1-OL],Volatility,[1]; [2],3752.17 μg/l air
"CC(=O)OC/C=C(\C)CCC=C(C)C [(E)-3,7-DIMETHYL-2,6-OCTADIENYL ACETATE]",Volatility (μg/l air),[1]; [3],85.23 μg/l air
O=C/C=C/c1ccccc1 [(E)-3-PHENYL-2-PROPENAL],Volatility (μg/l air),[1]; [4],70.14 μg/l air
N#C/C=C/c1ccccc1 [(E)-3-PHENYL-2-PROPENENITRILE],Volatility (μg/l air),[1]; [4],66.00 μg/l air
CC(=O)OC/C=C/c1ccccc1 [(E)-3-PHENYL-2-PROPENYL ACETATE],Volatility (μg/l air),[1]; [3],20.47 μg/l air
CCC(=O)OC/C=C/c1ccccc1 [(E)-3-PHENYL-2-PROPENYL PROPANOATE],Volatility (μg/l air),[1]; [3],8.14 μg/l air
CCOCOC1CCCCCCCCCCC1 [(ETHOXYMETHOXY)CYCLODODECANE],Volatility (μg/l air),[1]; [4],6.63 μg/l air
CC/C=C\CCO [(Z)-3-HEXEN-1-OL],Volatility,[1]; [2],5986.62 μg/l air
CC/C=C\CCOC(C)=O [(Z)-3-HEXENYL ACETATE],Volatility,[1]; [2],3398.34 μg/l air
CCCCC/C=C\CCC=O [(Z)-4-DECENAL],Volatility,[1]; [2],629.54 μg/l air
CC/C=C\CCCCCO [(Z)-6-NONEN-1-OL],logP,physchem,3.44
same,logP,physchem; n-octanol/water,3.44
same,Volatility,"[1]; Table 4, watery note",6.91 μg/l air
same,Volatility,[1]; [2],6.91 μg/l air
CC/C=C\CCCCC=O [(Z)-6-NONENAL],Volatility,[1]; [2],2431.73 μg/l air
C=CCOC(=O)CCCCC [ALLYL HEXANOATE],logP,physchem; n-octanol/water,3.62
CC(C)CC(=O)OCc1ccccc1 [BENZYL 3-METHYLBUTANOATE],Volatility (μg/l air),[1]; [3],63.56 μg/l air
same,Volatility (μg/l air),[1]; [5],63.56 μg/l air
C/C=C(\C)C(=O)OCc1ccccc1 [BENZYL (E)-2-METHYL-2-BUTENOATE],Volatility (μg/l air),[1]; [3],33.88 μg/l air
same,Volatility (μg/l air),[1]; [4],33.88 μg/l air
O=COCc1ccccc1 [BENZYL FORMATE],Volatility,[1]; [2],1339.53 μg/l air
N#CC(=C1CCCCC1)c1ccccc1 [CYCLOHEXYLIDENE(PHENYL)ACETONITRILE],Volatility,[1]; [2],0.96 μg/l air
CCCCSCCCC [DIBUTYL SULFIDE],logP,physchem; n-octanol/water,4.86
same,Volatility,[1]; [2],2766.10 μg/l air
"CCOC(=O)C1OC1(C)c1ccccc1 (centres unmarked) [ETHYL 2,3-EPDXY-3-PHENYLBUTANOATE]",Volatility (μg/l air),[1]; [3],12.97 μg/l air
CCOC(=O)/C=C/c1ccccc1 [ETHYL (E)-3-PHENYL-2-PROPENOATE],Volatility (μg/l air),[1]; [3],20.55 μg/l air
CCOC(C)=O [ETHYL ACETATE],logP,physchem,0.8
CCOC(=O)c1ccccc1 [ETHYL BENZOATE],logP,physchem,2.51
CCOC(=O)C(C)C [ETHYL ISOBUTYRATE],logP,physchem; n-octanol/water,2.03
CCOC(=O)Cc1ccccc1 [ETHYL PHENYLACETATE],logP,physchem,2.1
CCCCCCC=O [HEPTANAL],logP,physchem; n-octanol/water,2.15
same,Volatility,[1]; [2],22184.00 μg/l air
COC(=O)/C=C/c1ccccc1 [METHYL (E)-3-PHENYL-2-PROPENOATE],Volatility (μg/l air),[1]; [3],61.65 μg/l air
COC(=O)Cc1ccccc1 [METHYL PHENYLACETATE],Volatility (μg/l air),[1]; [5],555.30 μg/l air
same,Volatility (μg/l air),[1]; [6],555.30 μg/l air
CC(=O)OCc1ccccc1 [benzyl acetate],logP,physchem; n-octanol/water,2.04
"CCOC(=O)/C(C)=C/C(C)C [ethyl (2E)-2,4-dimethyl-2-pentenoate]",logP,physchem; n-octanol/water,3.35
CCCCCCC(=O)OCC [ethyl heptanoate],logP,physchem; n-octanol/water,3.58
COC(=O)C=C1CCCC1 [methyl cyclopentylideneacetate],logP,physchem; n-octanol/water,2.02
"(−)-(1S)-2,6,6-TRIMETHYL-BICYCLO[3.1.1]HEPT-2-ENE",Volatility,[1]; [2],33722.60 μg/l air
